The text below walks through data of paper PMC5218480 (PLoS ONE, 2017).

The assay has as its system MV-4-11 cells. As to the kind of experiment: Gene expression microarray analysis (Affymetrix PrimeView) and GSEA. It is filed as cell-based, human. As to conditions: MV-4-11 cells, 48 hours. Set-up: RFU PODN (11730768_x_at) / Fold change /veh PODN (11730768_x_at) / RFU LINC00158 (11744669_a_at) / Fold change /veh LINC00158 (11744669_a_at) / RFU DUSP10 (11751237_a_at) / Fold change /veh DUSP10 (11751237_a_at) / RFU ID3 (11757404_x_at) / Fold change /veh ID3 (11757404_x_at) / RFU PLEKHG5 (11737974_s_at) / Fold change /veh PLEKHG5 (11737974_s_at) / RFU LRRC4B (11730491_at) / Fold change /veh LRRC4B (11730491_at) / RFU GIMAP4 (11747438_a_at) / Fold change /veh GIMAP4 (11747438_a_at) / RFU KRT8 (11758183_x_at) / Fold change /veh KRT8 (11758183_x_at) / RFU CNN1 (11734310_a_at) / Fold change /veh CNN1 (11734310_a_at) / RFU VPS37D (11726825_at) / Fold change /veh VPS37D (11726825_at) / RFU C10orf10 (11716522_x_at) / Fold change /veh C10orf10 (11716522_x_at) / RFU KIR2DL2 /// KIR2DL4 /// KIR2DL5A /// KIR2DL5B /// KIR2DS1 /// KIR2DS2 /// KIR2DS3 /// KIR2DS4 /// KIR3DL3 /// KIR3DL3 /// KIR3DS1 (11738374_at) / Fold change /veh KIR2DL2 /// KIR2DL4 /// KIR2DL5A /// KIR2DL5B /// KIR2DS1 /// KIR2DS2 /// KIR2DS3 /// KIR2DS4 /// KIR3DL3 /// KIR3DL3 /// KIR3DS1 (11738374_at) / RFU C1QL1 (11718748_at) / Fold change /veh C1QL1 (11718748_at) / RFU TMPRSS4 (11747572_a_at) / Fold change /veh TMPRSS4 (11747572_a_at) / RFU HAMP (11756126_x_at) / Fold change /veh HAMP (11756126_x_at) / RFU RNFT2 (11725882_a_at) / Fold change /veh RNFT2 (11725882_a_at) / RFU NR4A2 (11747474_a_at) / Fold change /veh NR4A2 (11747474_a_at) / RFU ABCC12 (11746883_a_at) / Fold change /veh ABCC12 (11746883_a_at) / RFU TMEM136 (11760407_x_at) / Fold change /veh TMEM136 (11760407_x_at) / RFU CLDN22 /// WWC2 (11732394_at) / Fold change /veh CLDN22 /// WWC2 (11732394_at) / RFU HLA-DPB1 (11760878_x_at) / Fold change /veh HLA-DPB1 (11760878_x_at) / RFU SPINT1 (11716480_a_at) / Fold change /veh SPINT1 (11716480_a_at) / RFU GAP43 (11754022_s_at) / Fold change /veh GAP43 (11754022_s_at) / RFU A4GNT (11735810_at) / Fold change /veh A4GNT (11735810_at) / RFU PRB3 (11715151_x_at) / Fold change /veh PRB3 (11715151_x_at) / RFU TUBB4B (11761932_at) / Fold change /veh TUBB4B (11761932_at) / RFU CAPN14 (11732068_a_at) / Fold change /veh CAPN14 (11732068_a_at) / RFU TMCC2 (11721928_a_at) / Fold change /veh TMCC2 (11721928_a_at) / RFU IRGQ (11745062_a_at) / Fold change /veh IRGQ (11745062_a_at) / RFU FAM174B (11720279_a_at) / Fold change /veh FAM174B (11720279_a_at) / RFU TMPRSS4 (11748680_a_at) / Fold change /veh TMPRSS4 (11748680_a_at) / RFU FAM212B (11763350_a_at) / Fold change /veh FAM212B (11763350_a_at) / RFU PLEKHG5 (11743358_a_at) / Fold change /veh PLEKHG5 (11743358_a_at) / RFU ZSCAN30 (11745921_a_at) / Fold change /veh ZSCAN30 (11745921_a_at) / RFU CMKLR1 (11741424_a_at) / Fold change /veh CMKLR1 (11741424_a_at) / RFU LOC101060620 /// MAPK8IP1 (11723275_at) / Fold change /veh LOC101060620 /// MAPK8IP1 (11723275_at) / RFU SPTSSB (11747773_x_at) / Fold change /veh SPTSSB (11747773_x_at) / RFU PRSS12 (11739890_at) / Fold change /veh PRSS12 (11739890_at) / RFU BIN1 (11741810_x_at) / Fold change /veh BIN1 (11741810_x_at) / RFU WNT11 (11732464_a_at) / Fold change /veh WNT11 (11732464_a_at) / RFU C10orf10 (11716521_a_at) / Fold change /veh C10orf10 (11716521_a_at) / RFU C5orf56 (11738089_at) / Fold change /veh C5orf56 (11738089_at) / RFU CYB561 (11721691_x_at) / Fold change /veh CYB561 (11721691_x_at) / RFU ANKRD19P (11752326_a_at) / Fold change /veh ANKRD19P (11752326_a_at) / RFU OR2T12 /// OR2T33 /// OR2T8 (11738714_s_at) / Fold change /veh OR2T12 /// OR2T33 /// OR2T8 (11738714_s_at) / RFU VCAN (11748164_a_at) / Fold change /veh VCAN (11748164_a_at) / RFU JSRP1 (11732532_at) / Fold change /veh JSRP1 (11732532_at) / RFU KRTAP10-11 (11738290_x_at) / Fold change /veh KRTAP10-11 (11738290_x_at) / RFU MYO3A (11730013_a_at) / Fold change /veh MYO3A (11730013_a_at) / RFU EBF3 (11725865_a_at) / Fold change /veh EBF3 (11725865_a_at) / RFU CAMK2N1 (11719241_x_at) / Fold change /veh CAMK2N1 (11719241_x_at) / RFU C5orf56 (11738088_a_at) / Fold change /veh C5orf56 (11738088_a_at) / RFU OLFML3 (11715873_a_at) / Fold change /veh OLFML3 (11715873_a_at) / RFU LOC100653217 /// NTM (11731650_a_at) / Fold change /veh LOC100653217 /// NTM (11731650_a_at) / RFU MAPK11 (11762145_a_at) / Fold change /veh MAPK11 (11762145_a_at) / RFU FIZ1 (11724087_x_at) / Fold change /veh FIZ1 (11724087_x_at) / RFU OASL (11726364_x_at) / Fold change /veh OASL (11726364_x_at) / RFU SOX15 (11748057_x_at) / Fold change /veh SOX15 (11748057_x_at) / RFU CD79A (11719716_a_at) / Fold change /veh CD79A (11719716_a_at) / RFU HIST1H1D (11736915_at) / Fold change /veh HIST1H1D (11736915_at) / RFU CASKIN2 (11723855_a_at) / Fold change /veh CASKIN2 (11723855_a_at) / RFU LOC730098 (11760151_x_at) / Fold change /veh LOC730098 (11760151_x_at) / RFU OR4N2 (11742367_at) / Fold change /veh OR4N2 (11742367_at) / RFU PRRT2 (11749266_a_at) / Fold change /veh PRRT2 (11749266_a_at) / RFU SNX32 (11753110_a_at) / Fold change /veh SNX32 (11753110_a_at) / RFU CDHR5 (11726645_a_at) / Fold change /veh CDHR5 (11726645_a_at) / RFU RCAN1 (11760418_a_at) / Fold change /veh RCAN1 (11760418_a_at) / RFU FAM167A (11723789_a_at) / Fold change /veh FAM167A (11723789_a_at) / RFU FAM26E (11764081_at) / Fold change /veh FAM26E (11764081_at) / RFU ISYNA1 (11749810_s_at) / Fold change /veh ISYNA1 (11749810_s_at) / RFU ACY1 (11761880_at) / Fold change /veh ACY1 (11761880_at) / RFU 11764098_at / Fold change /veh 11764098_at / RFU SAMD14 (11745864_x_at) / Fold change /veh SAMD14 (11745864_x_at) / RFU NPB (11741838_a_at) / Fold change /veh NPB (11741838_a_at) / RFU TMPRSS6 (11731388_a_at) / Fold change /veh TMPRSS6 (11731388_a_at) / RFU KRTAP10-2 (11738614_at) / Fold change /veh KRTAP10-2 (11738614_at) / RFU ARHGAP8 /// PRR5-ARHGAP8 (11727945_x_at) / Fold change /veh ARHGAP8 /// PRR5-ARHGAP8 (11727945_x_at) / RFU KRTAP5-7 /// NADSYN1 (11734609_at) / Fold change /veh KRTAP5-7 /// NADSYN1 (11734609_at) / RFU RASL12 (11751679_a_at) / Fold change /veh RASL12 (11751679_a_at) / RFU CDKN2B (11736163_a_at) / Fold change /veh CDKN2B (11736163_a_at) / RFU PRF1 (11729649_at) / Fold change /veh PRF1 (11729649_at) / RFU, ZNF638 /// ZNF638-IT1 / Fold change vs veh, ZNF638 /// ZNF638-IT1 / RFU, PANK3 / Fold change vs veh, PANK3 / RFU, SH3YL1 / Fold change vs veh, SH3YL1 / RFU, ZEB2 / Fold change vs veh, ZEB2 / RFU, NRIP1 / Fold change vs veh, NRIP1 / RFU, PTTG1IP / Fold change vs veh, PTTG1IP / RFU, CAPN2 / Fold change vs veh, CAPN2 / RFU, MED14 / Fold change vs veh, MED14 / RFU, SNORA58 / Fold change vs veh, SNORA58 / RFU, C1orf63 / Fold change vs veh, C1orf63 / RFU, LRRFIP1 / Fold change vs veh, LRRFIP1 / RFU, NDUFAF7 / Fold change vs veh, NDUFAF7 / RFU, SLC12A2 / Fold change vs veh, SLC12A2 / RFU, IBTK / Fold change vs veh, IBTK / RFU, ESF1 / Fold change vs veh, ESF1 / Fold change vs veh, TMEM50B / RFU, TAOK1 / Fold change vs veh, TAOK1 / RFU, ACBD3 / Fold change vs veh, ACBD3 / RFU, TMA16 / Fold change vs veh, TMA16 / RFU, RWDD3 / Fold change vs veh, RWDD3 / RFU, BCAT1 / Fold change vs veh, BCAT1 / RFU, EDEM3 / Fold change vs veh, EDEM3 / RFU, TMEM33 / Fold change vs veh, TMEM33 / RFU, WDR75 / Fold change vs veh, WDR75 / RFU, AHCTF1 / Fold change vs veh, AHCTF1 / RFU, TFRC / Fold change vs veh, TFRC / RFU, ZDHHC17 / Fold change vs veh, ZDHHC17 / RFU, NOM1 / Fold change vs veh, NOM1 / RFU, ARL8B / Fold change vs veh, ARL8B / RFU, ZBTB11 / Fold change vs veh, ZBTB11 / RFU, TAMM41 / Fold change vs veh, TAMM41 / RFU, KIAA1704 /// LOC100996395 / Fold change vs veh, KIAA1704 /// LOC100996395 / RFU, ING1 / Fold change vs veh, ING1 / RFU, TRMT61B / Fold change vs veh, TRMT61B / RFU, FUBP3 / Fold change vs veh, FUBP3 / RFU, TP53 / Fold change vs veh, TP53 / RFU, TNKS2 / Fold change vs veh, TNKS2 / RFU, ZFP14 / Fold change vs veh, ZFP14 / RFU, ACTR2 / Fold change vs veh, ACTR2 / RFU, PPP3R1 / Fold change vs veh, PPP3R1 / RFU, PIK3R1 / Fold change vs veh, PIK3R1 / RFU, HNRNPA1 / Fold change vs veh, HNRNPA1 / RFU, RNF170 / Fold change vs veh, RNF170 / RFU, ZNF28 / Fold change vs veh, ZNF28 / RFU, RNGTT / Fold change vs veh, RNGTT / RFU, OGT / Fold change vs veh, OGT / RFU, BRD1 / Fold change vs veh, BRD1 / RFU, MARS / Fold change vs veh, MARS / RFU, ZNF655 / Fold change vs veh, ZNF655 / RFU, FAHD1 / Fold change vs veh, FAHD1 / RFU, BDP1 / Fold change vs veh, BDP1 / RFU, LRRCC1 / Fold change vs veh, LRRCC1 / RFU, ARID1A / Fold change vs veh, ARID1A / RFU, ZNF146 / Fold change vs veh, ZNF146 / RFU, ZNF330 / Fold change vs veh, ZNF330 / RFU, GPN3 / Fold change vs veh, GPN3 / RFU, C9orf123 / Fold change vs veh, C9orf123 / RFU, N4BP2L2 / Fold change vs veh, N4BP2L2 / RFU, ARFIP1 / Fold change vs veh, ARFIP1 / RFU, FAM179B / Fold change vs veh, FAM179B / RFU, BCL10 / Fold change vs veh, BCL10 / RFU, UHRF1BP1L / Fold change vs veh, UHRF1BP1L / RFU, BET1 / Fold change vs veh, BET1 / RFU, CNOT2 / Fold change vs veh, CNOT2 / RFU, ZNF268 / Fold change vs veh, ZNF268 / Fold change vs veh, ZNF507 / RFU, DGCR2 / Fold change vs veh, DGCR2 / RFU, WDSUB1 / Fold change vs veh, WDSUB1 / Fold change vs veh, HSP90B1 /// MIR3652 / RFU, ADSS / Fold change vs veh, ADSS / RFU, GK / Fold change vs veh, GK / RFU, ZNF148 / Fold change vs veh, ZNF148 / RFU, TAF9 / Fold change vs veh, TAF9 / RFU, SLC1A5 / Fold change vs veh, SLC1A5 / RFU, SLMO2 / Fold change vs veh, SLMO2 / RFU, ABCC4 / Fold change vs veh, ABCC4 / RFU, LOC101060439 /// RAP1B / Fold change vs veh, LOC101060439 /// RAP1B / RFU, RFX7 / Fold change vs veh, RFX7 / RFU, GTPBP10 / Fold change vs veh, GTPBP10 / RFU, CNEP1R1 / Fold change vs veh, CNEP1R1 / RFU, BIVM-ERCC5 /// ERCC5 / Fold change vs veh, BIVM-ERCC5 /// ERCC5 / RFU, ILF3 / Fold change vs veh, ILF3 / RFU 11762660_at / Fold change /veh 11762660_at / RFU VCAN (11757783_s_at) / Fold change /veh VCAN (11757783_s_at) / RFU DDX43 (11728927_at) / Fold change /veh DDX43 (11728927_at) / RFU KRT8 (11758188_x_at) / Fold change /veh KRT8 (11758188_x_at) / RFU NKD1 (11759106_at) / Fold change /veh NKD1 (11759106_at) / RFU SRD5A1 (11742802_a_at) / Fold change /veh SRD5A1 (11742802_a_at) / RFU TPSAB1 /// TPSB2 (11721975_s_at) / Fold change /veh TPSAB1 /// TPSB2 (11721975_s_at) / RFU GSTM3 (11746129_a_at) / Fold change /veh GSTM3 (11746129_a_at) / RFU IL23R (11737362_x_at) / Fold change /veh IL23R (11737362_x_at) / RFU TMEM51 (11727254_a_at) / Fold change /veh TMEM51 (11727254_a_at) / RFU PIWIL2 (11732686_x_at) / Fold change /veh PIWIL2 (11732686_x_at) / RFU ORM1 (11744905_x_at) / Fold change /veh ORM1 (11744905_x_at) / RFU CCDC152 (11743942_at) / Fold change /veh CCDC152 (11743942_at) / RFU ECM1 (11717891_a_at) / Fold change /veh ECM1 (11717891_a_at) / RFU IL23R (11748794_a_at) / Fold change /veh IL23R (11748794_a_at) / RFU TNFAIP8L3 (11732012_x_at) / Fold change /veh TNFAIP8L3 (11732012_x_at) / RFU MBOAT4 (11741988_at) / Fold change /veh MBOAT4 (11741988_at) / RFU 11764193_at / Fold change /veh 11764193_at / RFU TMEM53 (11763286_at) / Fold change /veh TMEM53 (11763286_at) / RFU MAGEB2 (11727129_at) / Fold change /veh MAGEB2 (11727129_at) / RFU TMEM200A (11744735_a_at) / Fold change /veh TMEM200A (11744735_a_at) / RFU CCDC152 (11751479_a_at) / Fold change /veh CCDC152 (11751479_a_at) / RFU FAM211A (11726209_a_at) / Fold change /veh FAM211A (11726209_a_at) / RFU RGS16 (11746705_a_at) / Fold change /veh RGS16 (11746705_a_at) / RFU VCAN (11755009_s_at) / Fold change /veh VCAN (11755009_s_at) / RFU RHOB (11743442_s_at) / Fold change /veh RHOB (11743442_s_at) / RFU RGS16 (11720943_a_at) / Fold change /veh RGS16 (11720943_a_at) / RFU RGS16 (11720944_at) / Fold change /veh RGS16 (11720944_at) / RFU, VPS4B / Fold change vs veh, VPS4B / RFU, CREB1 / Fold change vs veh, CREB1 / RFU, DNAJC13 / Fold change vs veh, DNAJC13 / RFU, GNAQ / Fold change vs veh, GNAQ / RFU, CDK5R1 / Fold change vs veh, CDK5R1 / RFU, ZRANB3 / Fold change vs veh, ZRANB3 / RFU, CUL4A / Fold change vs veh, CUL4A / RFU, CCNY / Fold change vs veh, CCNY / RFU, UFL1 / Fold change vs veh, UFL1 / RFU, COG3 / Fold change vs veh, COG3 / RFU, DIAPH2 / Fold change vs veh, DIAPH2 / RFU, SKA2 / Fold change vs veh, SKA2 / RFU, AFF3 / Fold change vs veh, AFF3 / RFU, LMF1 / Fold change vs veh, LMF1 / RFU, IPO11 / Fold change vs veh, IPO11 / RFU, DFFB / Fold change vs veh, DFFB / RFU, FOXP1 / Fold change vs veh, FOXP1 / RFU, CARD8 / Fold change vs veh, CARD8 / RFU, STRN3 / Fold change vs veh, STRN3 / RFU, ADK / Fold change vs veh, ADK / RFU, RASSF2 / Fold change vs veh, RASSF2 / RFU, WIPF1 / Fold change vs veh, WIPF1 / RFU, LARP1B / Fold change vs veh, LARP1B / RFU, RASA1 / Fold change vs veh, RASA1 / RFU, RB1 / Fold change vs veh, RB1 / RFU, PPFIA1 / Fold change vs veh, PPFIA1 / RFU, MAT2A / Fold change vs veh, MAT2A / RFU, CCT5 / Fold change vs veh, CCT5 / RFU, WDR92 / Fold change vs veh, WDR92 / RFU, CUX1 / Fold change vs veh, CUX1 / RFU, TTC7A / Fold change vs veh, TTC7A / RFU, TMEM135 / Fold change vs veh, TMEM135 / RFU, DEPTOR / Fold change vs veh, DEPTOR / RFU, CPM / Fold change vs veh, CPM / RFU, DNAJB6 / Fold change vs veh, DNAJB6 / RFU, CACNA2D3 / Fold change vs veh, CACNA2D3 / RFU, DTX4 / Fold change vs veh, DTX4 / RFU, TFCP2 / Fold change vs veh, TFCP2 / RFU, GMCL1 /// GMCL1P1 / Fold change vs veh, GMCL1 /// GMCL1P1 / RFU, AEBP2 / Fold change vs veh, AEBP2 / RFU, SNHG1 /// SNORD22 /// SNORD25 /// SNORD26 /// SNORD27 /// SNORD28 /// SNORD29 /// SNORD31 / Fold change vs veh, SNHG1 /// SNORD22 /// SNORD25 /// SNORD26 /// SNORD27 /// SNORD28 /// SNORD29 /// SNORD31 / Fold change (Aza/veh), C12orf56 (ProbeSet 11735607_a_at) / Fold change (ACY-1035/veh), C12orf56 (ProbeSet 11735607_a_at) / Fold change (Aza/veh), FGFR1OP (ProbeSet 11751329_s_at) / Fold change (ACY-1035/veh), FGFR1OP (ProbeSet 11751329_s_at) / Fold change (Aza/veh), VPS36 (ProbeSet 11739960_a_at) / Fold change (ACY-1035/veh), VPS36 (ProbeSet 11739960_a_at) / RFU SYPL1 (11715823_x_at) / Fold change /veh SYPL1 (11715823_x_at) / RFU IGFBP7 (11715501_s_at) / Fold change /veh IGFBP7 (11715501_s_at) / RFU REEP3 (11722064_at) / Fold change /veh REEP3 (11722064_at) / RFU IGLL1 (11728026_x_at) / Fold change /veh IGLL1 (11728026_x_at): dose or concentration left out as unconfirmed.

For `Nc1ccc(-c2cccs2)cc1NC(=O)c1ccc2c(c1)cc(C1CC1)n2CCN1CCOCC1` [ACY-1035], the “Fold change /veh C5orf56 (11738089_at)” value worked out at 1.04.
